The target in one experiment is T1, NPM-ALK fusion protein (Homo sapiens, UniProt Q9UM73).
T1 construct: endogenous in cells; host or cells: SU-DHL-1; the other entry of the earlier key: NPM1 (P06748, Nucleophosmin)
The experiment is described as follows: Western blot of NPM-ALK fusion protein levels in SU-DHL-1 cells. To be noted: SU-DHL-1 cells; for significantly reduced ALK fusion protein levels (degraders vs negative controls): 16 h; for Dmax at 0.03 µM: 30 nM, Western blot, read-out: ALK fusion protein degradation, SU-DHL-1 (30 nM). The format is cell-based. The method, then: Cells were cultured in a 37° C. incubator with 5% CO2.
Cells were washed with cold PBS once and lysed in 1× Laemmli loading buffer directly. […] Membrane was blocked in 5% milk in Tris-buffered saline and Tween 20 (TBST) for 1 h at room temperature, followed by incubation with a primary antibody overnight at 4° C., and a horseradish peroxidase (HRP)-conjugated secondary antibody for 1 h at room temperature. The membrane was imaged by a ChemiDoc MP imaging system (BIO-RAD). Antibodies against GAPDH (abeam), Phospho-ALK (Tyr1507), ALK (Cell Signaling Technology), Tubulin (Santa Cruz) were purchased commercially.
SU-DHL-1 suspension cells were seeded in 12-well plates at a density of 6×10^5/mL and treated with DMSO or indicated compounds at 30 nM or 100 nM for indicated time.
SU-DHL-1 cells were seeded in 12-well plates at a density of 4×10^5/mL and treated with DMSO or indicated serial dilutions of compounds for 16 h. The NPM-ALK fusion protein levels were determined by Western blot and normalized against GPADH (right panel).
(In western blotting, separated proteins are transferred to a membrane and probed.)

The next experiment concerns the target T2, ALK fusion protein (Homo sapiens, UniProt Q9UM73).
T2 construct: endogenous in cells; host or cells: NCI-H3122; the other entry of the earlier key: EML4 (Q9HC35, Echinoderm microtubule-associated protein-like 4)
Nature of the experiment: Western blot of ALK fusion protein levels in NCI-H3122 cells. The format is cell-based. To be noted: for Dmax at 0.5 µM: NCI-H3122, NCI-H3122 cells, read-out: ALK fusion protein degradation, NCI-H3122 (500 nM); for significantly reduced ALK fusion protein levels (degraders vs negative controls): 16 h.

Consider five compounds from patent publication US20210283261A1, “Compositions and Methods for Treating ALK-Mediated Cancer” (ICAHN SCHOOL OF MEDICINE AT MOUNT SINAI, priority 2017, published 2021).

T2 sequence (Q9UM73 with tags, fused parts or gaps): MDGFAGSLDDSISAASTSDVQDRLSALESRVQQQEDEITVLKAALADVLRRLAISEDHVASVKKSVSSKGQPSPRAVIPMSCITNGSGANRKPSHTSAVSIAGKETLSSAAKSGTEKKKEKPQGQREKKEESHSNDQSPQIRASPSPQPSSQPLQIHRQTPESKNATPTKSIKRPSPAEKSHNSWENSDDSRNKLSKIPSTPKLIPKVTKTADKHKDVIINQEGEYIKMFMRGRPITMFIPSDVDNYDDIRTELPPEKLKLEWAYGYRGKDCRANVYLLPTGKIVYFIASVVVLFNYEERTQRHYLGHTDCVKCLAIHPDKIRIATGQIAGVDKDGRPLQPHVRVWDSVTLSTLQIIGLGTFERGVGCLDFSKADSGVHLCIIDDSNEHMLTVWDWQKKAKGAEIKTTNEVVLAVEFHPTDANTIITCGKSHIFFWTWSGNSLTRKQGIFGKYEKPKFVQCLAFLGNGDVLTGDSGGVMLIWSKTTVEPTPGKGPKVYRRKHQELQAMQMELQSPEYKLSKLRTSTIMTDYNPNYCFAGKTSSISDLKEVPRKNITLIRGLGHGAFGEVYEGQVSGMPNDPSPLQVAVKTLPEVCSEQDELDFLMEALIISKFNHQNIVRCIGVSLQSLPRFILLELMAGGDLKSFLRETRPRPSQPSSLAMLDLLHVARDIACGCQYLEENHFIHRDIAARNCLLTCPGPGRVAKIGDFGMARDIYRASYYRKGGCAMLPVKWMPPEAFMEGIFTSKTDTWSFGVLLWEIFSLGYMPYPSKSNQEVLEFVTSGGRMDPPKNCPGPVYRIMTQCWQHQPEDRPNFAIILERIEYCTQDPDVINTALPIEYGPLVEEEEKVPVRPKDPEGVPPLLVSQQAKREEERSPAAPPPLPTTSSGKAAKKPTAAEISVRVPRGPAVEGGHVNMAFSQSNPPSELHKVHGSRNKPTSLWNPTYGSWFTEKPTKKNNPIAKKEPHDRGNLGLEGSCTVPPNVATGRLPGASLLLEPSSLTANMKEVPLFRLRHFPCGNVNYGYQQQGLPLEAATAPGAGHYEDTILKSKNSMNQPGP
T1 sequence (Q9UM73 with tags, fused parts or gaps): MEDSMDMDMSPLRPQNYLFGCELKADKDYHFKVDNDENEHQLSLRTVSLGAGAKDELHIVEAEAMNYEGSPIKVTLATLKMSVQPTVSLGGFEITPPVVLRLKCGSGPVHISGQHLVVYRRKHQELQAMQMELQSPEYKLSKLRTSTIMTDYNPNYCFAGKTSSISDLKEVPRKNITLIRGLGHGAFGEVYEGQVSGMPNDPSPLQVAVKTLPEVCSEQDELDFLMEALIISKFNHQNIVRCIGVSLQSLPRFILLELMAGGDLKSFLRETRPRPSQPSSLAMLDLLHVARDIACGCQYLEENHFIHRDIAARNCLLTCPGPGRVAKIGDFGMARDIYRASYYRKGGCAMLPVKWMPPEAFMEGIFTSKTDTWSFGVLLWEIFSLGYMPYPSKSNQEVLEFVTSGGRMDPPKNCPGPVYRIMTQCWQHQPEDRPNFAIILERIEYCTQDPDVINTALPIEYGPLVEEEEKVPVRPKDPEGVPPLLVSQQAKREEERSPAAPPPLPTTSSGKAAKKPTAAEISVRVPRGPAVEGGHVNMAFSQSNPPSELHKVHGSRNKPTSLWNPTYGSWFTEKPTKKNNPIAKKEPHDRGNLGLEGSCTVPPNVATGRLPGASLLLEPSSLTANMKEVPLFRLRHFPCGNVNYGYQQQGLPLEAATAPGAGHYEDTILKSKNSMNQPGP

`Cc1cc(Nc2ncc(Cl)c(Nc3ccccc3S(=O)(=O)C(C)C)n2)c(OC(C)C)cc1C1CCN(C(=O)CCCC(=O)N[C@H](C(=O)N2C[C@@H](O)C[C@H]2C(=O)NCc2ccc(-c3scnc3C)cc2)C(C)(C)C)CC1` [HC58-111, (2S,4S)-1-((S)-2-(5-(4-(4-((5-Chloro-4-((2-(isopropylsulfonyl)phenyl)amino)pyrimidin-2-yl)amino)-5-isopropoxy-2-methylphenyl)piperidin-1-yl)-5-oxopentanamido)-3,3-dimethylbutanoyl)-4-hydroxy-N-(4-(4-methylthiazol-5-yl)benzyl)pyrrolidine-2-carboxamide]: the “significantly reduced ALK fusion protein levels (degraders vs negative controls)” value at NPM-ALK fusion protein and at ALK fusion protein (NCI-H3122 cells) was “not” in each case. Further, the Dmax at 0.5 µM on ALK fusion protein (500 nM, Western blot) was less than 20%.
Regarding `Cc1cc(Nc2ncc(Cl)c(Nc3ccccc3S(=O)(=O)C(C)C)n2)c(OC(C)C)cc1C1CCN(C(=O)CCCCC(=O)N[C@H](C(=O)N2C[C@@H](O)C[C@H]2C(=O)NCc2ccc(-c3scnc3C)cc2)C(C)(C)C)CC1` [HC58-112, (2S,4S)-1-((S)-2-(6-(4-(4-((5-chloro-4-((2-(isopropylsulfonyl)phenyl)amino)pyrimidin-2-yl)amino)-5-isopropoxy-2-methylphenyl)piperidin-1-yl)-6-oxohexanamido)-3,3-dimethylbutanoyl)-4-hydroxy-N-(4-(4-methylthiazol-5-yl)benzyl)pyrrolidine-2-carboxamide], the “significantly reduced ALK fusion protein levels (degraders vs negative controls)” value on NPM-ALK fusion protein and on ALK fusion protein (NCI-H3122 cells) was “not” throughout. The Dmax at 0.5 µM on ALK fusion protein (500 nM, Western blot) was less than 20%.
As to `Cc1cc(Nc2ncc(Cl)c(Nc3ccccc3S(=O)(=O)C(C)C)n2)c(OC(C)C)cc1C1CCN(C(=O)COCCOCC(=O)N[C@H](C(=O)N2CC(O)C[C@H]2C(=O)NCc2ccc(-c3scnc3C)cc2)C(C)(C)C)CC1` (stereo in doubt) [HC58-110, (2S,4S)-1-((S)-2-(2-(2-(2-(4-(4-((5-Chloro-4-((2-(isopropylsulfonyl)phenyl)amino)pyrimidin-2-yl)amino)-5-isopropoxy-2-methylphenyl)piperidin-1-yl)-2-oxoethoxy)ethoxy)acetamido)-3,3-dimethylbutanoyl)-4-hydroxy-N-(4-(4-methylthiazol-5-yl)benzyl)pyrrolidine-2-carboxamide], the “significantly reduced ALK fusion protein levels (degraders vs negative controls)” value on NPM-ALK fusion protein and on ALK fusion protein (NCI-H3122 cells) was “not” throughout. The “ALK fusion protein degradation, NCI-H3122 (500 nM)” value on ALK fusion protein (NCI-H3122 cells, 500 nM, Western blot) is “− (Protein degradation <20%)”.
Consider `Cc1cc(Nc2ncc(Cl)c(Nc3ccccc3S(=O)(=O)C(C)C)n2)c(OC(C)C)cc1C1CCN(CC(=O)NCCOCCOCCNc2cccc3c2C(=O)N(C2CCC(=O)NC2=O)C3=O)CC1` (centres unmarked) [CZ40-51, 2-(4-(4-((5-Chloro-4-((2-(isopropylsulfonyl)phenyl)amino)pyrimidin-2-yl)amino)-5-isopropoxy-2-methylphenyl)piperidin-1-yl)-N-(2-(2-(2-((2-(2,6-dioxopiperidin-3-yl)-1,3-dioxoisoindolin-4-yl)amino)ethoxy)ethoxy)ethyl)acetamide], for which the Dmax at 0.03 µM on NPM-ALK fusion protein was more than 80%.
The same measure, in the same setting: to `Cc1cc(Nc2ncc(Cl)c(Nc3ccccc3S(=O)(=O)C(C)C)n2)c(OC(C)C)cc1C1CCN(CC(=O)NCCOCCOCCOCCOCCC(=O)N[C@H](C(=O)N2C[C@H](O)C[C@H]2C(=O)NCc2ccc(-c3scnc3C)cc2)C(C)(C)C)CC1` [CZ40-87, (2S,4R)-1-((S)-20-(tert-Butyl)-1-(4-(4-((5-chloro-4-((2-(isopropylsulfonyl)phenyl)amino)pyrimidin-2-yl)amino)-5-isopropoxy-2-methylphenyl)piperidin-1-yl)-2,18-dioxo-6,9,12,15-tetraoxa-3,19-diazahenicosan-21-oyl)-4-hydroxy-7V-(4-(4-methylthiazol-5-yl)benzyl)pyrrolidine-2-carboxamide] belongs less than 20%.
